Patent publication US20140363425A1, “SYSTEMS AND METHODS FOR I[…] HAVING ACTIVATED PR[…]” (priority 2013, published 2014)

How the values were obtained:
[1] = test system: PR; assay type: cell-based, human; settings: AB32 cells (PR expressing clone of MCF-10A), 10 nM, 45 minutes, false discovery rate 0.27%
Protocol: (§1) In one aspect, PR genomic interactions were mapped in T-47D breast cancer cells and in the AB32 cell line: a stable PR expressing clone of the MCF-10A immortalized normal breast cell line. Cells were treated with the progestin ORG2058 (10 nM, 45 minutes), followed by PR-chromatin immunoprecipitation (ChIP) and Illumina sequencing. Sequences were aligned to the human genome and genomic regions enriched in the alignments were identified using the Bowtie and ERANGE [38] software tools (false discovery rate 0.27%).
(§2) Cells were cultured to 80% confluency in 15 cm tissue culture dishes, then treated for 45 minutes with 10 nM ORG2058 or vehicle. Chromatin was subsequently cross-linked by the addition of formaldehyde to the culture medium to a final concentration of 1% and incubation for 10 minutes at 37° C. Media were immediately removed and the cells were washed with cold phosphate buffered saline and harvested by scraping. Cells were collected by centrifugation and pellets were lysed 10 minutes at 4° C. in SDS buffer (1% SDS; 10 mM EDTA; 50 mM Tris-HCl, pH 8). The lysates were sonicated at 4° C. with a Branson 450 sonicator, using seven one minute bursts at 40% amplitude and 60% duty, each separated by a rest of at least one minute. Lysates were centrifuged at 13,000×g at 4° C. for 15 minutes to remove debris. […]

[2] = test system: T-47D cells; assay: Whole genome gene expression microarray in T-47D cells; assay type: cell-based, human; settings: 10 nM, 2, 6 and 24 h, self-organizing map clustering
Protocol: (§3) Total RNA was isolated using RNAqueous purification columns (Invitrogen). Total RNA (500 ng) was amplified and biotin labelled using Illumina TotalPrep reagents (Invitrogen). The amplified samples (750 ng) were hybridized to human whole genome HT-12 gene expression bead arrays using the recommended Illumina reagents and following the manufacturer's protocol. Raw data were analysed using Genome Studio software (Illumina). After background subtraction data and cubic spline normalization, differential expression p values were determined using the Illumina custom model of Genome Studio. Data were further analysed using Microsoft Excel and SPSS statistical software. Hierarchical clustering and self organizing map clustering were performed using GenePattern.
(A and B) Overlap between PR binding regions and progestin regulated genes in (A) T-47D and (B) AB32 cells. (C and D) PR binding regions within 10 kb or in the 5′-UTR of genes regulated at 2, 6 and 24 h in (C) T-47D and (D) AB32 cells. (E) Genes with patterns of progestin regulation in T-47D cells that grouped together were identified by SOM cluster analysis using Gene Pattern. […]
In reference to FIG. 3B, T-47D and AB32 cells were treated with 10 nM ORG2058 (ORG) or vehicle for 2, 6 and 24 h. Transcript expression was measured by whole genome microarray. […]

[3] = test system: AB32 cells; assay: Whole genome gene expression microarray in AB32 cells; assay type: cell-based, human; settings: 10 nM, 2, 6 and 24 h
Protocol: as §3
In reference to FIG. 3B, T-47D and AB32 cells were treated with 10 nM ORG2058 (ORG) or vehicle for 2, 6 and 24 h. Transcript expression was measured by whole genome microarray. Genes that were differentially expressed in ORG2058 treated samples relative to the untreated control at one or more time point in T-47D or AB32 cells were compared by unsupervised hierarchical cluster analysis. Red—increased expression, green—decreased expression relative to vehicle treated control.
In reference to FIG. 10, progestin regulated transcripts were identified in AB32 cells at 2, 6 and 24 h treatment with 10 nM ORG2058 by gene expression profiling. […]

[4] = target: T1, PR (Homo sapiens, UniProt P06401); assay type: cell-based; design: endogenous in cells; host or cells: T-47D; settings: T-47D breast cancer cells, 10 nM, 45 minutes, false discovery rate 0.27%
T1 sequence (P06401 1-933): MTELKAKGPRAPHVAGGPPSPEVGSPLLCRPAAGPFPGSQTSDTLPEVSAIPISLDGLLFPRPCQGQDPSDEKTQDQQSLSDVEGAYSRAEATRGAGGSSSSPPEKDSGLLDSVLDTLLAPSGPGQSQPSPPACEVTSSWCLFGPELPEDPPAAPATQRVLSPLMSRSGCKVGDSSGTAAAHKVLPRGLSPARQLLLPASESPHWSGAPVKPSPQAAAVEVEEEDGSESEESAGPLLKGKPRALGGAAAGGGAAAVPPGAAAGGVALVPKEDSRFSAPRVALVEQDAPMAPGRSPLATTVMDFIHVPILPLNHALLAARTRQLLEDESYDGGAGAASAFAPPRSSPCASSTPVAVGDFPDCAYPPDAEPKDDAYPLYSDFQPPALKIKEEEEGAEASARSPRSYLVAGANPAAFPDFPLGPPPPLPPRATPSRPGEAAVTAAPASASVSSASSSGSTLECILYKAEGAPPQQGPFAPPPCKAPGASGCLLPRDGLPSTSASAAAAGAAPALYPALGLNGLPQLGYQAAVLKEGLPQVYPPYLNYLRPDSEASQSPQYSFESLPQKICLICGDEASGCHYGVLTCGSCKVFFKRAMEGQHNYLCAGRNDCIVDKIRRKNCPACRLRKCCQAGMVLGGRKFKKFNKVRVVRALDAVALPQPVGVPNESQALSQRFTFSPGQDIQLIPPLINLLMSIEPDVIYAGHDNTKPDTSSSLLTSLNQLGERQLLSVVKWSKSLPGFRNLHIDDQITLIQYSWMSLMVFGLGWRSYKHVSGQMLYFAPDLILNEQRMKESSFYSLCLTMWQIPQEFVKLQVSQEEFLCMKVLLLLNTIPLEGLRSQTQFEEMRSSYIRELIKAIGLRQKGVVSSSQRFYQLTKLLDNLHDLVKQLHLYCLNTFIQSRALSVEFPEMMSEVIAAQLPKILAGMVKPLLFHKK
Protocol: as §1, §2

[5] = target: T1, PR; settings: cited from earlier work

| SMILES | PR binding regions detected [1] | cluster of transcripts decreased at all time points, beginning to return toward basal levels at 24 h [2] | direction of transcript regulation [3] | peaks of PR binding identified [4] | dissociation from PR compared with ORG2058 [5] |
| --- | --- | --- | --- | --- | --- |
| CC[C@@H]1C[C@H]2[C@@H]3CCC4=CC(=O)CC[C@@H]4[C@H]3CC[C@]2(C)[C@H]1C(=O)CO [ORG2058, (8R,9S,10R,13S,14S,16R,17S)-16-ethyl-17-(2-hydroxyacetyl)-13-methyl-2,6,7,8,9,10,11,12,14,15,16,17-dodecahydro-1H-cyclopenta[a]phenanthren-3-one] | 8117 | 26 | more transcripts were decreased than increased | 6312 | – |
| CC(=O)[C@H]1CC[C@H]2[C@@H]3CCC4=CC(=O)CC[C@]4(C)[C@H]3CC[C@]12C [progesterone] | – | – | – | – | dissociates from PR more rapidly |
